# Results reported in PMC10584170, “Machine learning-based phenotypic imaging to characterise the targetable biology of Plasmodium falciparum male gametocytes for the development of transmission-blocking antimalarials” (PLOS Pathogens, 2023).
# Read-outs that look alike come from different tables or passages of the source.
# Tests used:
# [1] = system: P. falciparum male gametocytes; assay: P. falciparum Dual Gamete Formation Assay (PfDGFA), male readout (exflagellation); type: cell-based, Plasmodium falciparum NF54; settings: for Selectivity Ratio M: HepG2 Tox50 versus male IC50; for inhibition at 2 µM / Average inhibition male (%) / % inhibition male (individual replicates) R1 / % inhibition male (individual replicates) R4 / % inhibition male (individual replicates) R3: 24h preincubation with gametocytes; for IC50: PfDGFA, 24 h incubation with gametocytes before induction, exflagellation readout, read-out: Male IC50; for HitlevelM: number of replicates with >50% inhibition in the male readout
# Summary of the method: (§1)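 Male and female gamete formation were quantified by microscopy image analysis following 24 h incubation of mature NF54 gametocytes with compound and activation at 28°C with xanthurenic acid.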
# [2] = system: P. falciparum female gametocytes; assay: P. falciparum Dual Gamete Formation Assay (PfDGFA), female readout (Pfs25-positive female gametes); type: cell-based, Plasmodium falciparum NF54; settings: for Selectivity ratio F: HepG2 Tox50 versus female IC50; for inhibition at 2 µM / Average inhibition female (%) / % inhibition female (individual replicates) R1 / % inhibition female (individual replicates) R3 / % inhibition female (individual replicates) R4: 24h preincubation with gametocytes; for IC50: PfDGFA, 24 h incubation with gametocytes before induction, female gamete readout, read-out: Female IC50; for HitlevelF: number of replicates with >50% inhibition in the female readout
# Summary of the method: as §1
# HepG2 cells = assay: HepG2 cytotoxicity counter-screen; settings: cytotoxic activity against HepG2 cells
# [3] = PfDGFA at 2µM, average of replicates
# [4] = Plasmodium falciparum, 2µM, average of replicates, read-out: Average inhibition male (%)
# [5] = Plasmodium falciparum, 2µM, replicate R1, read-out: % inhibition male (individual replicates) R1
# [6] = Plasmodium falciparum, 2µM, replicate R2, read-out: % inhibition male (individual replicates) R2
# [7] = Plasmodium falciparum, 2µM, replicate R4, read-out: % inhibition male (individual replicates) R4
# [8] = Plasmodium falciparum, 2µM, average of replicates, read-out: Average inhibition female (%)
# [9] = Plasmodium falciparum, 2µM, replicate R1, read-out: % inhibition female (individual replicates) R1
# [10] = Plasmodium falciparum, 2µM, replicate R2, read-out: % inhibition female (individual replicates) R2
# [11] = Plasmodium falciparum, 2µM, replicate R3, read-out: % inhibition female (individual replicates) R3
# [12] = Plasmodium falciparum, 2µM, replicate R4, read-out: % inhibition female (individual replicates) R4
# [13] = Plasmodium falciparum, 2µM, replicate R3, read-out: % inhibition male (individual replicates) R3
Structure (SMILES),Selectivity Ratio M [1],IC50 ([1]; Plasmodium falciparum),Selectivity ratio F [2],IC50 ([2]; Plasmodium falciparum),Tox50 (HepG2 cells),IC50 [1],"Average inhibition male (%) ([1]; 2µM, average of replicates)","% inhibition male (individual replicates) R1 ([1]; 2µM, replicate R1)","% inhibition male (individual replicates) R3 ([1]; 2µM, replicate R3)","% inhibition male (individual replicates) R4 ([1]; 2µM, replicate R4)",IC50 [2],"inhibition at 2 µM [1, 4]","inhibition at 2 µM [1, 5]","inhibition at 2 µM [1, 6]","inhibition at 2 µM [1, 7]","inhibition at 2 µM [2, 8]","inhibition at 2 µM [2, 9]","inhibition at 2 µM [2, 10]","inhibition at 2 µM [2, 11]","inhibition at 2 µM [2, 12]",other results
CNC(=O)c1cnc(Nc2ccc(N3CCN(C)CC3)cc2)nc1Nc1ccccc1OC.O=C(O)C(F)(F)F [TCMDC-141382],29.58,1200 nM,3.56,> 10000 nM,35.63 µM,,,,,,,,,,,,,,,,"inhibition at 2 µM ([1]; Plasmodium falciparum, PfDGFA at 2µM, average of replicates, read-out: Average inhibition male (%)): 82.8%; inhibition at 2 µM ([1]; Plasmodium falciparum, PfDGFA at 2µM, replicate R1, read-out: % inhibition male (individual replicates) R1): 83.2%; inhibition at 2 µM ([1]; Plasmodium falciparum, PfDGFA at 2µM, replicate R2, read-out: % inhibition male (individual replicates) R2): 85.9%; inhibition at 2 µM ([1]; Plasmodium falciparum, PfDGFA at 2µM, replicate R3, read-out: % inhibition male (individual replicates) R3): 82.1%; inhibition at 2 µM ([1]; Plasmodium falciparum, PfDGFA at 2µM, replicate R4, read-out: % inhibition male (individual replicates) R4): 80.2%; HitlevelM ([1]; 2µM): 4; inhibition at 2 µM ([2]; Plasmodium falciparum, PfDGFA at 2µM, average of replicates, read-out: Average inhibition female (%)): 0.5%; inhibition at 2 µM ([2]; Plasmodium falciparum, PfDGFA at 2µM, replicate R1, read-out: % inhibition female (individual replicates) R1): -10.9%; inhibition at 2 µM ([2]; Plasmodium falciparum, PfDGFA at 2µM, replicate R2, read-out: % inhibition female (individual replicates) R2): 1.1%; inhibition at 2 µM ([2]; Plasmodium falciparum, PfDGFA at 2µM, replicate R3, read-out: % inhibition female (individual replicates) R3): 15.6%; inhibition at 2 µM ([2]; Plasmodium falciparum, PfDGFA at 2µM, replicate R4, read-out: % inhibition female (individual replicates) R4): -3.9%; HitlevelF ([2]; 2µM): 0"
CN(C)CC(O)COc1ccc(Nc2ncc([N+](=O)[O-])c(Nc3ccccc3O)n2)cc1.O=C(O)C(F)(F)F (stereo not drawn) [TCMDC-141399],1.47,,0.27,,2.69 µM,1830 nM,,,,,,,,,,,,,,,"Average inhibition male (%) [1, 3]: 87.0%; % inhibition male (individual replicates) R1 ([1]; PfDGFA at 2µM, replicate R1): 80.9%; % inhibition male (individual replicates) R4 ([1]; PfDGFA at 2µM, replicate R4): 85.8%; HitlevelM ([1]; 2µM): 3; Average inhibition female (%) [2, 3]: 9.6%; % inhibition female (individual replicates) R1 ([2]; PfDGFA at 2µM, replicate R1): 0.18%; % inhibition female (individual replicates) R3 ([2]; PfDGFA at 2µM, replicate R3): 2.4%; % inhibition female (individual replicates) R4 ([2]; PfDGFA at 2µM, replicate R4): 9.1%; HitlevelF ([2]; 2µM): 0"
Cc1ccc(Cn2nc(Cl)c(N3CCNCC3)cc2=O)cc1NC(=O)Nc1ccc(-c2ccccc2)cc1.O=C(O)C(F)(F)F [TCMDC-141698],3.32,,3.54,,3.97 µM,1200 nM,96.8%,94.1%,94.5%,100.9%,1120 nM,,,,,,,,,,"Average inhibition female (%) ([2]; 2µM, average of replicates): 53.1%; % inhibition female (individual replicates) R1 ([2]; 2µM, replicate R1): 36.8%; % inhibition female (individual replicates) R3 ([2]; 2µM, replicate R3): 40.3%; % inhibition female (individual replicates) R4 ([2]; 2µM, replicate R4): 66.3%"
Cc1c(Cn2nc(Cl)c(N3CCNCC3)cc2=O)cccc1NC(=O)Nc1ccc(-c2ccccc2)cc1.O=C(O)C(F)(F)F [TCMDC-141699],2.05,,2.15,,1.2 µM,580 nM,91.5%,87.4%,92.1%,92.9%,560 nM,,,,,,,,,,"Average inhibition female (%) ([2]; 2µM, average of replicates): 53.7%; % inhibition female (individual replicates) R1 ([2]; 2µM, replicate R1): 31.7%; % inhibition female (individual replicates) R3 ([2]; 2µM, replicate R3): 37.6%; % inhibition female (individual replicates) R4 ([2]; 2µM, replicate R4): 62.1%"
Cl.O=S(=O)(Nc1cc2c(cc1OCCCN1CCCCC1)CCNCC2)c1ccc(-c2ccc(Cl)cc2)cc1 [TCMDC-141753],5.89,,1.62,,7.17 µM,1220 nM,98.2%,97.5%,95.7%,101.6%,4420 nM,,,,,,,,,,"Average inhibition female (%) ([2]; 2µM, average of replicates): 56.2%; % inhibition female (individual replicates) R1 ([2]; 2µM, replicate R1): 37.1%; % inhibition female (individual replicates) R3 ([2]; 2µM, replicate R3): 44.2%; % inhibition female (individual replicates) R4 ([2]; 2µM, replicate R4): 65.5%"
Cc1ccc(C)c(S(=O)(=O)NCC2CCN(Cc3ccc(O)cc3)CC2)c1.O=C(O)C(F)(F)F [TCMDC-141802],54.73,1490 nM,8.16,> 10000 nM,81.55 µM,,,,,,,95.1%,95.4%,96.3%,93.6%,41.1%,46.9%,46.3%,38%,33.3%,
O=C(O)CCSSc1cccc[n+]1[O-] [TCMDC-141973],128.35,240 nM,117.36,260 nM,30.9 µM,,,,,,,97.3%,98.9%,96.8%,92.9%,42.8%,28.9%,62.6%,43.7%,35.9%,"inhibition at 2 µM [1, 13]: 100%"
Nc1nc(N)c2cc(NC(=O)c3ccc(Cl)c(Cl)c3)ccc2n1 [TCMDC-141982],2.06,,1.06,,2.38 µM,1150 nM,98.2%,97.3%,98.4%,100.2%,2250 nM,,,,,,,,,,"Average inhibition female (%) ([2]; 2µM, average of replicates): 81.8%; % inhibition female (individual replicates) R1 ([2]; 2µM, replicate R1): 88.2%; % inhibition female (individual replicates) R3 ([2]; 2µM, replicate R3): 90.4%; % inhibition female (individual replicates) R4 ([2]; 2µM, replicate R4): 80.2%"
Cl.OC(CNCCCCCCNCC(O)c1ccc(Cl)c(Cl)c1)c1ccc(Cl)c(Cl)c1 (stereo not drawn) [TCMDC-141987],3.57,,1.28,,6.33 µM,1770 nM,,,,,4930 nM,,,,,,,,,,"Average inhibition male (%) [1, 3]: 88.7%; % inhibition male (individual replicates) R1 ([1]; PfDGFA at 2µM, replicate R1): 92.2%; % inhibition male (individual replicates) R3 ([1]; PfDGFA at 2µM, replicate R3): 63.5%; % inhibition male (individual replicates) R4 ([1]; PfDGFA at 2µM, replicate R4): 102.2%; HitlevelM ([1]; 2µM): 4; Average inhibition female (%) [2, 3]: 52.4%; % inhibition female (individual replicates) R1 ([2]; PfDGFA at 2µM, replicate R1): 44.0%; % inhibition female (individual replicates) R3 ([2]; PfDGFA at 2µM, replicate R3): 21.3%; % inhibition female (individual replicates) R4 ([2]; PfDGFA at 2µM, replicate R4): 69.1%; HitlevelF ([2]; 2µM): 2"
O=c1c(Br)ccccc1Br [TCMDC-142246],47.29,150 nM,63.16,110 nM,6.95 µM,,,,,,,98.7%,98.2%,102%,99.6%,96.5%,93.6%,94.7%,103%,94.9%,"inhibition at 2 µM [1, 13]: 94.6%"
Nc1cc(C=Cc2ccc([N+](=O)[O-])o2)nc2ccccc12 [TCMDC-142295],16.74,160 nM,6.49,400 nM,2.6 µM,,,,,,,98.9%,98.2%,98.8%,100%,93.7%,96.4%,95.7%,93.8%,88.9%,"inhibition at 2 µM [1, 13]: 98.4%"
Nc1cc(C=Cc2ccc([N+](=O)[O-])s2)nc2ccccc12 [TCMDC-142296],5.37,330 nM,1.71,1030 nM,1.76 µM,,,,,,,100%,99.9%,101%,102%,80.5%,71.6%,88.4%,72.1%,89.8%,"inhibition at 2 µM [1, 13]: 97.4%"
